Patent US9493466B2, “Treatment of cancer with TOR kinase inhibitors” (Signal Pharmaceuticals, LLC, priority 2011, dated 2016)

Key:
[1] = Storage stability of compound-spotted plates (repeat testing in A549); assay type: physicochemical; settings: DMSO-spotted sealed 384-well plates at −20° C.
Method: Compound 1 was dissolved in dimethyl sulfoxide (DMSO) to prepare a 10 mM stock solution. A serial titration was performed to produce a working concentration range of […] to 10 mM. Aliquots to produce final concentrations of 1.5 nM to 10 μM were spotted via an acoustic dispenser (EDC ATS-100) into an empty 384-well plate. Compound 1 was spotted in a 10-point serial dilution fashion (3-fold dilution) in duplicate within the plate. The DMSO concentration was kept constant for a final assay concentration of 0.1% DMSO. Plates were replicated for use with different cell lines and testing periods. […] When ready for testing, plates were removed from the freezer, thawed, and unsealed just prior to the addition of the test cells. […] At the time when compound was added (t0), initial cell number was assessed via a viability assay (Cell Titer-Glo) by quantifying the level of luminescence generated by ATP present in viable cells. After 96 hours, cell viability of compound-treated cells was assessed via Cell Titer-Glo and luminescence measurement. […] The compound response against this control cell line was monitored closely to enable comparison of the data generated through the assay period. […] Results were then expressed as a GI50 value. […] In addition, the IC50 value of Compound 1 for each cell line was calculated.

OCI-LY-3 = experiment: Growth inhibition assay for NHL lines; assay type: cell-based; settings: OCI-LY-3, NHL DLBCL, 96 hours, n ≧ 3
Method: (§1) Growth Inhibition Assay for HCC and NHL Lines. The seeding density for each cell line was optimized to ensure assay linearity in 384-well plates.
(§2) Compound 1 was dissolved in dimethyl sulfoxide (DMSO) to prepare a 10 mM stock solution. A serial titration was performed to produce a working concentration range of […] to 10 mM. Aliquots to produce final concentrations of 1.5 nM to 10 μM were spotted via an acoustic dispenser (EDC ATS-100) into an empty 384-well plate. Compound 1 was spotted in a 10-point serial dilution fashion (3-fold dilution) in duplicate within the plate. The DMSO concentration was kept constant for a final assay concentration of 0.1% DMSO. Plates were replicated for use with different cell lines and testing periods. After compound plate replication, all plates were sealed (Agilent ThermoLoc) and stored at −20° C. for up to 1 month. […] When ready for testing, plates were removed from the freezer, thawed, and unsealed just prior to the addition of the test cells. Prior to testing, cells were grown and expanded in culture flasks to provide sufficient amounts of starting material. Cells were then diluted to the appropriate densities and added directly to the compound-spotted 384-well plates. Cells were allowed to grow for 96 hours at 37° C./5% CO2. At the time when compound was added (t0), initial cell number was assessed via a viability assay (Cell Titer-Glo) by quantifying the level of luminescence generated by ATP present in viable cells. After 96 hours, cell viability of compound-treated cells was assessed via Cell Titer-Glo and luminescence measurement. Cell lines were assayed for growth inhibition by Compound 1 in at least 3 independent tests. A control cell line (the lung tumor cell line, A549) was included in each of the assays. The compound response against this control cell line was monitored closely to enable comparison of the data generated through the assay period. All data were normalized and presented as a percentage of the DMSO-treated cells. Results were then expressed as a GI50 value. The GI50 value corrects for the cell count at time zero. In addition, the IC50 value of Compound 1 for each cell line was calculated.

WSU-DLCL2 = experiment: Growth inhibition assay for NHL lines; assay type: cell-based; settings: WSU-DLCL2, NHL DLBCL, 96 hours, n ≧ 3
Method: as §1, §2

Farage = experiment: Growth inhibition assay for NHL lines; assay type: cell-based; settings: NHL DLBCL, 96 hours, n ≧ 3
Method: as §1, §2

RC-K8 = experiment: Growth inhibition assay for NHL lines; assay type: cell-based; settings: RC-K8, NHL DLBCL, 96 hours, n ≧ 3
Method: as §1, §2

OCI-LY-19 = experiment: Growth inhibition assay for NHL lines; assay type: cell-based; settings: OCI-LY-19, NHL DLBCL, 96 hours, n ≧ 3
Method: as §1, §2

Pfeiffer = experiment: Growth inhibition assay for NHL lines; assay type: cell-based; settings: NHL DLBCL, 96 hours, n ≧ 3
Method: as §1, §2

WSU-NHL = experiment: Growth inhibition assay for NHL lines; assay type: cell-based; settings: NHL FL, 96 hours, n ≧ 3
Method: as §1, §2

THP-1 = experiment: Growth inhibition assay for NHL lines; assay type: cell-based; settings: THP-1, Leukemia M-AML, 96 hours, n ≧ 3
Method: as §1, §2

SU-DHL-16 = experiment: Growth inhibition assay for NHL lines; assay type: cell-based; settings: SU-DHL-16, NHL DLBCL, 96 hours, n ≧ 3
Method: as §1, §2

KG-1 = experiment: Growth inhibition assay for NHL lines; assay type: cell-based; settings: KG-1, Leukemia M-AML, 96 hours, n ≧ 3
Method: as §1, §2

OCI-LY-7 = experiment: Growth inhibition assay for NHL lines; assay type: cell-based; settings: OCI-LY-7, NHL DLBCL, 96 hours, n ≧ 3
Method: as §1, §2

HL-60 = experiment: Growth inhibition assay for NHL lines; assay type: cell-based; settings: HL-60, Leukemia M-AML, 96 hours, n ≧ 3
Method: as §1, §2

WSU-FSCCL = experiment: Growth inhibition assay for NHL lines; assay type: cell-based; settings: NHL FL, 96 hours, n ≧ 3
Method: as §1, §2

SC-1 = experiment: Growth inhibition assay for NHL lines; assay type: cell-based; settings: SC-1, NHL FL, 96 hours, n ≧ 3
Method: as §1, §2

JVM-13 = experiment: Growth inhibition assay for NHL lines; assay type: cell-based; settings: JVM-13, NHL MCL, 96 hours, n ≧ 3
Method: as §1, §2

DB = experiment: Growth inhibition assay for NHL lines; assay type: cell-based; settings: NHL DLBCL, 96 hours, n ≧ 3
Method: as §1, §2

U-2932 = experiment: Growth inhibition assay for NHL lines; assay type: cell-based; settings: U-2932, NHL DLBCL, 96 hours, n ≧ 3
Method: as §1, §2

KARPAS-1106P = experiment: Growth inhibition assay for NHL lines; assay type: cell-based; settings: NHL DLBCL, 96 hours, n ≧ 3
Method: as §1, §2

OCI-LY-10 = experiment: Growth inhibition assay for NHL lines; assay type: cell-based; settings: OCI-LY-10, NHL DLBCL, 96 hours, n ≧ 3
Method: as §1, §2

JEKO-1 = experiment: Growth inhibition assay for NHL lines; assay type: cell-based; settings: JEKO-1, NHL MCL, 96 hours, n ≧ 3
Method: as §1, §2

RIVA = experiment: Growth inhibition assay for NHL lines; assay type: cell-based; settings: NHL DLBCL, 96 hours, n ≧ 3
Method: as §1, §2

U-2940 = experiment: Growth inhibition assay for NHL lines; assay type: cell-based; settings: U-2940, NHL DLBCL, 96 hours, n ≧ 3
Method: as §1, §2

Mino = experiment: Growth inhibition assay for NHL lines; assay type: cell-based; settings: NHL MCL, 96 hours, n ≧ 3
Method: as §1, §2

KARPAS-422 = experiment: Growth inhibition assay for NHL lines; assay type: cell-based; settings: KARPAS-422, NHL DLBCL, 96 hours, n ≧ 3
Method: as §1, §2

CO[C@H]1CC[C@H](N2C(=O)CNc3ncc(-c4ccc(C(C)(C)O)nc4)nc32)CC1 [Compound 1, 7-(6-(2-hydroxypropan-2-yl)pyridin-3-yl)-1-((1r,4r)-4-methoxycyclohexyl)-3,4-dihydropyrazino-[2,3-b]pyrazin-2(1H)-one]
stable under the storage conditions [1]: at least 1 month | GI50 (OCI-LY-3): 210 ± 60 nM | IC50 (OCI-LY-3): 290 ± 70 nM | GI50 (WSU-DLCL2): 90 ± 20 nM | IC50 (WSU-DLCL2): 90 ± 20 nM | GI50 (Farage): 270 ± 30 nM | IC50 (Farage): 280 ± 40 nM | GI50 (RC-K8): 80 ± 10 nM | IC50 (RC-K8): 150 ± 30 nM | GI50 (OCI-LY-19): 220 ± 60 nM | IC50 (OCI-LY-19): 350 ± 80 nM | GI50 (Pfeiffer): 90 ± 40 nM | IC50 (Pfeiffer): 190 ± 70 nM | GI50 (WSU-NHL): 50 nM | IC50 (WSU-NHL): 70 nM | GI50 (THP-1): 230 ± 110 nM | IC50 (THP-1): 570 ± 160 nM | GI50 (SU-DHL-16): 110 ± 20 nM | IC50 (SU-DHL-16): 110 ± 20 nM | GI50 (KG-1): 60 ± 20 nM | IC50 (KG-1): 370 ± 40 nM | GI50 (OCI-LY-7): 190 ± 30 nM | IC50 (OCI-LY-7): 250 ± 30 nM | GI50 (HL-60): 240 ± 60 nM | IC50 (HL-60): 380 ± 130 nM | GI50 (WSU-FSCCL): 160 ± 40 nM | IC50 (WSU-FSCCL): 190 ± 40 nM | GI50 (SC-1): 180 ± 10 nM | IC50 (SC-1): 200 ± 10 nM | GI50 (JVM-13): 1770 ± 1610 nM | IC50 (JVM-13): 3.49 ± 2.48 µM | GI50 (DB): 150 ± 100 nM | IC50 (DB): 170 ± 90 nM | GI50 (U-2932): 300 ± 30 nM | IC50 (U-2932): 450 ± 10 nM | GI50 (KARPAS-1106P): 70 ± 30 nM | IC50 (KARPAS-1106P): 70 ± 30 nM | GI50 (OCI-LY-10): 140 ± 40 nM | IC50 (OCI-LY-10): 190 ± 40 nM | GI50 (JEKO-1): 70 ± 40 nM | IC50 (JEKO-1): 100 ± 50 nM | GI50 (RIVA): 20 ± 10 nM | IC50 (RIVA): 100 ± 50 nM | GI50 (U-2940): 110 ± 70 nM | IC50 (U-2940): 180 ± 100 nM | GI50 (Mino): 370 ± 130 nM | IC50 (Mino): 480 ± 100 nM | GI50 (KARPAS-422): 20 ± 10 nM | IC50 (KARPAS-422): 20 ± 10 nM
